biological target: T1, chicken gizzard smooth muscle myosin subfragment-1 chemically crosslinked to either cardiac or skeletal actin (Gallus gallus, UniProt P10587); test: Smooth muscle myosin ATPase dose response assay (pyruvate kinase/horseradish peroxidase/pyruvate oxidase-coupled); format: biochemical; details: ATPase activity of crosslinked smooth muscle actomyosin (subfragment-1); amplex red fluorescence; 4 parameter fit; read-out: IC50 Arithmetic Mean
T1 construct: chicken gizzard smooth muscle myosin subfragment-1
Protocol: Screening assays were performed using a pyruvate kinase and lactate dehydrogenase-coupled ATPase assay containing the following reagents: Potassium PIPES (50 mM), MgCl2 (3 mM), KCl (100 mM), ATP (0.15 mM), DTT (1 mM), BSA (0.1 mg/ml), NADH (0.5 mM), PEP (1.5 mM), pyruvate kinase (4 U/ml), lactate dehydrogenase (8 U/ml), and antifoam (50 ppm) (concentrations expressed are final assay concentrations). The pH was adjusted to 6.80 at 22 °C by addition of potassium hydroxide. Lead optimization assays were performed with a more sensitive pyruvate kinase/horseradish peroxidase/pyruvate oxidase-coupled ATPase assay containing the following reagents: Potassium PIPES (12 mM), MgCl2 (2 mM), KCl (100 mM), ATP (0.15 mM), BSA (0.05 mg/ml), potassium phosphate (2 mM), amplex red (0.1 mM), PEP (0.1 mM), pyruvate kinase (4 U/ml), horseradish peroxidase (0.5 U/ml), pyruvate oxidase (0.5 U/ml), and antifoam (50 ppm) (concentrations expressed are final assay concentrations). The pH was adjusted to 7.00 at 22 °C by addition of potassium hydroxide.
The protein components specific to this assay are chicken gizzard smooth muscle myosin subfragment-1 that has been chemically crosslinked to either cardiac or skeletal actin using an excess of 1-Ethyl-3-[3-dimethylaminopropyl]carbodiimide hydrochloride and N-hydroxysuccinimide. The exact concentration of the crosslinked smooth muscle myosin in the assay is determined empirically, by titration to achieve a desired rate of ATP hydrolysis. The concentration varies between protein preparations due to variations in the fraction of active molecules in each preparation.
Compound dose response assays are performed by first preparing a dilution series of test compound, each with an assay mixture containing potassium PIPES, MgCl2, KCl, ATP, BSA, potassium phosphate, amplex red, PEP, crosslinked smooth muscle actomyosin (subfragment-1), antifoam, and water. The assay is started by adding an equal volume of solution containing potassium Pipes, MgCl2, KCl, BSA, potassium phosphate, pyruvate kinase, horseradish peroxidase, pyruvate oxidase, antifoam, and water. ATP hydrolysis is monitored by measuring the fluorescence of amplex red (excitation at 480 nm, emission at 615 nm). The resulting dose response curve is fit by the 4 parameter equation y=Bottom+((Top-Bottom)/(1+((IC50/X)^Hill))). The IC50 is defined as the concentration at which ATPase activity is midway between the top and bottom of the dose response curve.

| SMILES | IC50 [µM] |
| --- | --- |
| C/C=C/c1nc(NCCc2cccc(F)c2)c(C(=O)NCc2cccnc2)cc1C#N [(6-((1E)prop-1-enyl)-5-cyano-2-{[2-(3-fluorophenyl)ethyl]amino}(3-pyridyl))-N-(3-pyridylmethyl)carboxamide] | 0.361 |
| C/C=C/c1nc(NCCc2cccc(F)c2)c(C(=O)NCc2cccnc2CNC(=O)OC(C)(C)C)cc1F [(6-((1E)prop-1-enyl)-5-fluoro-2-{[2-(3-fluorophenyl)ethyl]amino}(3-pyridyl))-N-[(2-{[(tert-butoxy)carbonylamino]methyl}(3-pyridyl))methyl]carboxamide] | 11.7 |
| C/C=C/c1nc(NCCc2cccc(F)c2)c(C(=O)NCc2cccnc2CN)cc1F [(6-((1E)prop-1-enyl)-5-fluoro-2-{[2-(3-fluorophenyl)ethyl]amino}(3-pyridyl))-N-{[2-(aminomethyl)(3-pyridyl)]methyl}carboxamide] | 0.0805 |
| C/C=C(/C)c1ccc(C(=O)NCc2cccnc2)c(NCCc2cccc(F)c2)n1 [(6-((1Z)-1-methylprop-1-enyl)-2-{[2-(3-fluorophenyl)ethyl]amino}(3-pyridyl))-N-(3-pyridylmethyl)carboxamide] | 10.5 |
| CN(C)c1ccc(C(=O)NCc2cccnc2)c(NCCc2cccc(F)c2)n1 [(6-(dimethylamino)-2-{[2-(3-fluorophenyl)ethyl]amino}(3-pyridyl))-N-(3-pyridylmethyl)carboxamide] | 4.92 |
| CCOC(C)c1ccc(C(=O)NCc2cccnc2)c(NCCc2cccc(F)c2)n1 (stereo not shown) [(6-(ethoxyethyl)-2-{[2-(3-fluorophenyl)ethyl]amino}(3-pyridyl))-N-(3-pyridylmethyl)carboxamide] | 73 |
| CN(C)/C(=N/C#N)c1ccc(C(=O)NCc2cccnc2)c(NCCc2cccc(F)c2)n1 [(6-[(1E)-1-(dimethylamino)-2-cyano-2-azavinyl]-2-{[2-(3-fluorophenyl)ethyl]amino}(3-pyridyl))-N-(3-pyridylmethyl)carboxamide] | 5.19 |
| NC(=O)CCCNc1ccc(C(=O)NCc2cccnc2)c(NCCc2cccc(F)c2)n1 [(6-[(3-carbamoylpropyl)amino]-2-{[2-(3-fluorophenyl)ethyl]amino}(3-pyridyl))-N-(3-pyridylmethyl)carboxamide] | 42.8 |
| NC(=O)CCCCNc1ccc(C(=O)NCc2cccnc2)c(NCCc2cccc(F)c2)n1 [(6-[(4-carbamoylbutyl)amino]-2-{[2-(3-fluorophenyl)ethyl]amino}(3-pyridyl))-N-(3-pyridylmethyl)carboxamide] | 6.74 |
| N#CNC(=N)c1ccc(C(=O)NCc2cccnc2)c(NCCc2cccc(F)c2)n1 [(6-[(cyanoamino)iminomethyl]-2-{[2-(3-fluorophenyl)ethyl]amino}(3-pyridyl))-N-(3-pyridylmethyl)carboxamide] | 0.231 |
| CN(C)C(=N)c1ccc(C(=O)NCc2cccnc2)c(NCCc2cccc(F)c2)n1 [(6-[(dimethylamino)iminomethyl]-2-{[2-(3-fluorophenyl)ethyl]amino}(3-pyridyl))-N-(3-pyridylmethyl)carboxamide] | 17.3 |
| CC(=O)c1ccc(C(=O)NCc2cccnc2)c(NCCc2cccc(F)c2)n1 [(6-acetyl-2-{[2-(3-fluorophenyl)ethyl]amino}(3-pyridyl))-N-(3-pyridylmethyl)carboxamide] | 24.8 |
| N#Cc1ccc(C(=O)NCc2cccnc2)c(NCCc2cccc(F)c2)n1 [(6-cyano-2-{[2-(3-fluorophenyl)ethyl]amino}(3-pyridyl))-N-(3-pyridylmethyl)carboxamide] | 65.8 |
| CC(=O)N(CCO)c1ccc(C(=O)NCc2cccnc2)c(NCCc2cccc(F)c2)n1 [N-(6-{[2-(3-fluorophenyl)ethyl]amino}-5-[N-(3-pyridylmethyl)carbamoyl](2-pyridyl))-N-(2-hydroxyethyl)acetamide] | 53.4 |
| CC(=O)N(C)c1ccc(C(=O)NCc2cccnc2)c(NCCc2cccc(F)c2)n1 [N-(6-{[2-(3-fluorophenyl)ethyl]amino}-5-[N-(3-pyridylmethyl)carbamoyl](2-pyridyl))-N-methylacetamide] | 33.5 |
| O=C(NCc1cccc(CN2C(=O)c3ccccc3C2=O)n1)c1cc(Br)cnc1NCCc1cccc(F)c1 [N-({6-[(1,3-dioxobenzo[c]azolin-2-yl)methyl](2-pyridyl)}methyl)(5-bromo-2-{[2-(3-fluorophenyl)ethyl]amino}(3-pyridyl))carboxamide] | 9.72 |
| NCc1ncccc1CNC(=O)c1cc(F)cnc1NCCc1cccc(F)c1 [N-{[2-(aminomethyl)(3-pyridyl)]methyl}(5-fluoro-2-{[2-(3-fluorophenyl)ethyl]amino}(3-pyridyl))carboxamide] | 2.69 |
| Cn1cc(-c2cnc(NCCc3cccc(F)c3)c(C(=O)NCc3cccc(CN)n3)c2)cn1 [N-{[6-(aminomethyl)(2-pyridyl)]methyl}(2-{[2-(3-fluorophenyl)ethyl]amino}-5-(1-methylpyrazol-4-yl)(3-pyridyl))carboxamide] | 17.7 |
| NCc1cccc(CNC(=O)c2cc(-c3ccccn3)cnc2NCCc2cccc(F)c2)n1 [N-{[6-(aminomethyl)(2-pyridyl)]methyl}(2-{[2-(3-fluorophenyl)ethyl]amino}-5-(2-pyridyl)(3-pyridyl))carboxamide] | 16 |
| NCc1cccc(CNC(=O)c2cc(-c3cccnc3)cnc2NCCc2cccc(F)c2)n1 [N-{[6-(aminomethyl)(2-pyridyl)]methyl}(2-{[2-(3-fluorophenyl)ethyl]amino}-5-(3-pyridyl)(3-pyridyl))carboxamide] | 7.39 |
| NCc1cccc(CNC(=O)c2cc(-c3ccncc3)cnc2NCCc2cccc(F)c2)n1 [N-{[6-(aminomethyl)(2-pyridyl)]methyl}(2-{[2-(3-fluorophenyl)ethyl]amino}-5-(4-pyridyl)(3-pyridyl))carboxamide] | 9.84 |
| N#Cc1ccccc1-c1cnc(NCCc2cccc(F)c2)c(C(=O)NCc2cccc(CN)n2)c1 [N-{[6-(aminomethyl)(2-pyridyl)]methyl}(5-(2-cyanophenyl)-2-{[2-(3-fluorophenyl)ethyl]amino}(3-pyridyl))carboxamide] | 6.03 |
| NCc1cccc(CNC(=O)c2cc(Br)cnc2NCCc2cccc(F)c2)n1 [N-{[6-(aminomethyl)(2-pyridyl)]methyl}(5-bromo-2-{[2-(3-fluorophenyl)ethyl]amino}(3-pyridyl))carboxamide] | 15 |
| CCOC(=O)c1ccc(C(=O)NCc2cccnc2)c(NCCc2cccc(F)c2)n1 [ethyl 6-{[2-(3-fluorophenyl)ethyl]amino}-5-[N-(3-pyridylmethyl)carbamoyl]pyridine-2-carboxylate] | 2.65 |
| COC(=O)c1cc(C#N)cnc1NCCc1cccc(F)c1 [methyl 5-cyano-2-{[2-(3-fluorophenyl)ethyl]amino}pyridine-3-carboxylate] | 14.9 |
| COC(=O)c1ccc(NCCCCC(N)=O)nc1NCCc1cccc(F)c1 [methyl 6-[(4-carbamoylbutyl)amino]-2-{[2-(3-fluorophenyl)ethyl]amino}pyridine-3-carboxylate] | 44.3 |
| COC(=O)c1ccc(C(=O)NCc2cccnc2)c(NCCc2cccc(F)c2)n1 [methyl 6-{[2-(3-fluorophenyl)ethyl]amino}-5-[N-(3-pyridylmethyl)carbamoyl]pyridine-2-carboxylate] | 4.35 |
| COC(=O)/C=C(\C)c1ccc(C(=O)NCc2cccnc2)c(NCCc2cccc(F)c2)n1 [methyl (2E)-3-(6-{[2-(3-fluorophenyl)ethyl]amino}-5-[N-(3-pyridylmethyl)carbamoyl](2-pyridyl))but-2-enoate] | 3.45 |

From patent publication US7939548B2, “Certain chemical entities, compositions, and methods” (Cytokinetics, Inc., priority 2006, dated 2011)
